From BindingDB's records for doi:10.1046/j.1471-4159.2000.751294.x (University of California, 2000)

Assay: Displacement of [3H]IMI from nicotinic acetylcholine receptor in Aphis craccivora (cowpea aphid) whole body membrane after 90 min by filter binding assay

Compound | IC50 [nM]
O=[N+]([O-])/N=C1\NCCN1Cc1cnc(Cl)s1 [IMIDACLOTHIZ] | 8.2
O=[N+]([O-])/N=C1\NCOCN1Cc1ccc(Cl)nc1 | 15
O=[N+]([O-])/N=C1\NCOCN1Cc1cnc(Cl)s1 [DESMETHYLTHIAMETHOXAM] | 11
C/N=C(\NCc1ccc(Cl)nc1)N[N+](=O)[O-] | 4.4
